Assay results reported in patent US20230085307A1, “PYRIDAZINONE COMPOUND AND HERBICIDE” (NISSAN CHEMICAL CORPORATION, priority 2019, published 2023).

How the values were obtained:
Italian ryegrass [1] = experiment: Test Example 5: herbicidal effect by foliage application, plastic box (Table 20, symbol K); format: in vivo, Italian ryegrass (Lolium multiflorum); conditions: foliage application, 320 g/ha, evaluated three weeks after application
How it was run: (§1)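 Foliar spray test: emulsion formulation diluted in water to a set application rate, sprayed onto 14-day-old plants raised in diluvial soil at 25° C to 30° C under glass. Both herbicidal effect and crop effect rated visually three weeks later.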

persian speedwell [2] = experiment: Test Example 5: herbicidal effect by foliage application, plastic box (Table 20, symbol R); format: in vivo, Persian speedwell (Veronica persica); conditions: foliage application, 320 g/ha, evaluated three weeks after application
How it was run: as §1

southern crabgrass [3] = experiment: Test Example 4: herbicidal effect by soil treatment (Table 19, symbol F); format: in vivo, southern crabgrass (Digitaria ciliaris); conditions: amount of applied herbicide 320 g/ha
How it was run: (§2)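 Step 1: sow seeds in sterilized diluvial soil, cover ~1.5 cm. Step 2: spray diluted emulsion onto soil surface at predetermined rate. Step 3: greenhouse, 25–30° C, three weeks. Step 4: grade effect on each plant by earlier criteria.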

barnyard grass [4] = experiment: Test Example 3: herbicidal effect by foliage application, Wagner pot (Table 18, symbol H); format: in vivo, barnyard grass (Echinochloa crus-galli); conditions: amount of applied herbicide 320 g/ha
How it was run: (§3)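 Plants were sown in alluvial soil held under 0.1–0.5 cm standing water and grown 14 days in a greenhouse at 25–30 °C. An emulsifiable formulation, water-diluted to the set dose, was then sprayed onto the foliage, and effects were scored three weeks later using previously defined criteria.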

lambsquarters [5] = experiment: Test Example 4: herbicidal effect by soil treatment (Table 19, symbol O); format: in vivo, lambsquarters (Chenopodium album); conditions: amount of applied herbicide 320 g/ha
How it was run: as §2

redroot pigweed [6] = experiment: Test Example 5: herbicidal effect by foliage application, plastic box (Table 20, symbol N); format: in vivo, redroot pigweed (Amaranthus retroflexus); conditions: foliage application, 320 g/ha, evaluated three weeks after application
How it was run: as §1

wild oat [7] = experiment: Test Example 5: herbicidal effect by foliage application, plastic box (Table 20, symbol I); format: in vivo, wild oat (Avena fatua); conditions: foliage application, 320 g/ha, evaluated three weeks after application
How it was run: as §1

wild oat [8] = experiment: Test Example 4: herbicidal effect by soil treatment (Table 19, symbol I); format: in vivo, wild oat (Avena fatua); conditions: amount of applied herbicide 320 g/ha
How it was run: as §2

redroot pigweed [9] = experiment: Test Example 4: herbicidal effect by soil treatment (Table 19, symbol N); format: in vivo, redroot pigweed (Amaranthus retroflexus); conditions: amount of applied herbicide 320 g/ha
How it was run: as §2

rice flat sedge = experiment: Test Example 3: herbicidal effect by foliage application, Wagner pot (Table 18, symbol E); format: in vivo, rice flat sedge (Cyperus iria); conditions: amount of applied herbicide 320 g/ha
How it was run: as §3

persian speedwell [10] = experiment: Test Example 4: herbicidal effect by soil treatment (Table 19, symbol R); format: in vivo, Persian speedwell (Veronica persica); conditions: amount of applied herbicide 320 g/ha
How it was run: as §2

velvetleaf [11] = experiment: Test Example 4: herbicidal effect by soil treatment (Table 19, symbol M); format: in vivo, velvetleaf (Abutilon theophrasti); conditions: amount of applied herbicide 320 g/ha
How it was run: as §2

Chinese sprangletop = experiment: Test Example 3: herbicidal effect by foliage application, Wagner pot (Table 18, symbol D); format: in vivo, chinese sprangletop (Leptochloa chinensis); conditions: amount of applied herbicide 320 g/ha
How it was run: as §3

velvetleaf [12] = experiment: Test Example 5: herbicidal effect by foliage application, plastic box (Table 20, symbol M); format: in vivo, velvetleaf (Abutilon theophrasti); conditions: foliage application, 320 g/ha, evaluated three weeks after application
How it was run: as §1

southern crabgrass [13] = experiment: Test Example 5: herbicidal effect by foliage application, plastic box (Table 20, symbol F); format: in vivo, southern crabgrass (Digitaria ciliaris); conditions: foliage application, 320 g/ha, evaluated three weeks after application
How it was run: as §1

lambsquarters [14] = experiment: Test Example 5: herbicidal effect by foliage application, plastic box (Table 20, symbol O); format: in vivo, lambsquarters (Chenopodium album); conditions: foliage application, 320 g/ha, evaluated three weeks after application
How it was run: as §1

chickweed [15] = experiment: Test Example 4: herbicidal effect by soil treatment (Table 19, symbol P); format: in vivo, common chickweed (Stellaria media); conditions: amount of applied herbicide 320 g/ha
How it was run: as §2

green foxtail [16] = experiment: Test Example 4: herbicidal effect by soil treatment (Table 19, symbol G); format: in vivo, green foxtail (Setaria viridis); conditions: amount of applied herbicide 320 g/ha
How it was run: as §2

barnyard grass [17] = experiment: Test Example 5: herbicidal effect by foliage application, plastic box (Table 20, symbol H); format: in vivo, barnyard grass (Echinochloa crus-galli); conditions: foliage application, 320 g/ha, evaluated three weeks after application
How it was run: as §1

barnyard grass [18] = experiment: Test Example 4: herbicidal effect by soil treatment (Table 19, symbol H); format: in vivo, barnyard grass (Echinochloa crus-galli); conditions: amount of applied herbicide 320 g/ha
How it was run: as §2

green foxtail [19] = experiment: Test Example 5: herbicidal effect by foliage application, plastic box (Table 20, symbol G); format: in vivo, green foxtail (Setaria viridis); conditions: foliage application, 320 g/ha, evaluated three weeks after application
How it was run: as §1

Italian ryegrass [20] = experiment: Test Example 4: herbicidal effect by soil treatment (Table 19, symbol K); format: in vivo, Italian ryegrass (Lolium multiflorum); conditions: amount of applied herbicide 320 g/ha
How it was run: as §2

windgrass [21] = experiment: Test Example 4: herbicidal effect by soil treatment (Table 19, symbol L); format: in vivo, windgrass (Apera spica-venti); conditions: amount of applied herbicide 320 g/ha
How it was run: as §2

windgrass [22] = experiment: Test Example 5: herbicidal effect by foliage application, plastic box (Table 20, symbol L); format: in vivo, windgrass (Apera spica-venti); conditions: foliage application, 320 g/ha, evaluated three weeks after application
How it was run: as §1

chickweed [23] = experiment: Test Example 5: herbicidal effect by foliage application, plastic box (Table 20, symbol P); format: in vivo, common chickweed (Stellaria media); conditions: foliage application, 320 g/ha, evaluated three weeks after application
How it was run: as §1

blackgrass = experiment: Test Example 5: herbicidal effect by foliage application, plastic box (Table 20, symbol J); format: in vivo, blackgrass (Alopecurus myosuroides); conditions: foliage application, 320 g/ha, evaluated three weeks after application
How it was run: as §1

For Cc1nn(C)c(=O)c(-c2c(-c3ccccc3C(F)(F)F)sc3ccc(F)cc23)c1O [2-229], the “herbicidal effect on K: Italian ryegrass (criteria 0-5)” value (Italian ryegrass [1]) was 4 (Herbicidal rate of 70% or more and less than 90%), the “herbicidal effect on R: persian speedwell (criteria 0-5)” value (persian speedwell [2]) was 5 (Herbicidal rate of 90% or more (almost completely withered)) and the “herbicidal effect on F: southern crabgrass” value (southern crabgrass [3]) was 3 (Herbicidal rate of 40% or more and less than 70%). For the same compound, the “herbicidal effect on H: barnyard grass” value (barnyard grass [4]) was 4 (Herbicidal rate of 70% or more and less than 90%), the “herbicidal effect on O: lambsquarters” value (lambsquarters [5]) was 3 (Herbicidal rate of 40% or more and less than 70%) and the “herbicidal effect on N: redroot pigweed (criteria 0-5)” value (redroot pigweed [6]) was 4 (Herbicidal rate of 70% or more and less than 90%). The “herbicidal effect on I: wild oat (criteria 0-5)” value (wild oat [7]) was 1 (Herbicidal rate of 5% or more and less than 20%), the “herbicidal effect on I: wild oat” value (wild oat [8]) was 0 (Herbicidal rate of 5% or less (almost no effect)) and the “herbicidal effect on N: redroot pigweed” value (redroot pigweed [9]) was 2 (Herbicidal rate of 20% or more and less than 40%). The “herbicidal effect on E: rice flat sedge” value (rice flat sedge) was 4 (Herbicidal rate of 70% or more and less than 90%), the “herbicidal effect on R: persian speedwell” value (persian speedwell [10]) was 0 (Herbicidal rate of 5% or less (almost no effect)) and the “herbicidal effect on M: velvetleaf” value (velvetleaf [11]) was 1 (Herbicidal rate of 5% or more and less than 20%). For the same compound, the “herbicidal effect on D: Chinese sprangletop” value (Chinese sprangletop) was 3 (Herbicidal rate of 40% or more and less than 70%), the “herbicidal effect on M: velvetleaf (criteria 0-5)” value (velvetleaf [12]) was 4 (Herbicidal rate of 70% or more and less than 90%) and the “herbicidal effect on F: southern crabgrass (criteria 0-5)” value (southern crabgrass [13]) was 3 (Herbicidal rate of 40% or more and less than 70%). For the same compound, the “herbicidal effect on O: lambsquarters (criteria 0-5)” value (lambsquarters [14]) was 4 (Herbicidal rate of 70% or more and less than 90%), the “herbicidal effect on P: chickweed” value (chickweed [15]) was 1 (Herbicidal rate of 5% or more and less than 20%) and the “herbicidal effect on G: green foxtail” value (green foxtail [16]) was 3 (Herbicidal rate of 40% or more and less than 70%). The “herbicidal effect on H: barnyard grass (criteria 0-5)” value (barnyard grass [17]) was 3 (Herbicidal rate of 40% or more and less than 70%), the “herbicidal effect on H: barnyard grass” value (barnyard grass [18]) was 1 (Herbicidal rate of 5% or more and less than 20%) and the “herbicidal effect on G: green foxtail (criteria 0-5)” value (green foxtail [19]) was 5 (Herbicidal rate of 90% or more (almost completely withered)). For the same compound, the “herbicidal effect on K: Italian ryegrass” value (Italian ryegrass [20]) was 2 (Herbicidal rate of 20% or more and less than 40%), the “herbicidal effect on L: windgrass” value (windgrass [21]) was 0 (Herbicidal rate of 5% or less (almost no effect)) and the “herbicidal effect on L: windgrass (criteria 0-5)” value (windgrass [22]) was 4 (Herbicidal rate of 70% or more and less than 90%). For the same compound, the “herbicidal effect on P: chickweed (criteria 0-5)” value (chickweed [23]) was 5 (Herbicidal rate of 90% or more (almost completely withered)) and the “herbicidal effect on J: blackgrass (criteria 0-5)” value (blackgrass) was 3 (Herbicidal rate of 40% or more and less than 70%).
